Data reported in patent US11078192B2, “Aromatic acetylene or aromatic ethylene compound, intermediate, preparation method, pharmaceutical composition and use thereof” (GUANGZHOU MAXINOVEL PHARMACEUTICALS CO., LTD., priority 2016, dated 2021).

target: PD-1/PD-L1 (Homo sapiens (Human), UniProt Q9NZQ7); assay: Homogeneous Time-Resolved Fluorescence (HTRF) binding assay; conditions: CisBio kit #64CUS000C-1, read-out: IC50 of compounds binding to PD-1/PD-L1
Description: Homogeneous Time-Resolved Fluorescence (HTRF) binding assay was used to determine the binding activity of the compound of the present invention to PD-1/PD-L1.
The purchased kit (CisBio, #64CUS000C-1) contained reagents required for assays such as PD-1, PD-L1, anti-tag1-Eu, Anti-tag2-XL665, Dilute Buffer, and Detection Buffer.
1. The compound was formulated to 10 concentrations with a 3-fold gradient with 100% DMSO.
2. The solution of the compound in DMSO was added to Dilute Buffer, mixed thoroughly, then transferred to a 96-well plate.
3. PD-L1 was diluted with Dilute Buffer, then added to the above 96-well plate.
4. PD-1 was diluted with Dilute Buffer and added to the above 96-well plate, which was then incubated at room temperature for 30 minutes.
5. A portion of anti-tag1-Eu and a portion of anti-tag2-XL665 were added to Detection Buffer, mixed thoroughly and transferred to the above 96-well plate.
6. The mixture in the above 96-well plate was incubated at room temperature for 1 to 24 hours.
7. HTRF values were read with Envision.

PD-1/PD-L1, sequence (Q9NZQ7 19-238): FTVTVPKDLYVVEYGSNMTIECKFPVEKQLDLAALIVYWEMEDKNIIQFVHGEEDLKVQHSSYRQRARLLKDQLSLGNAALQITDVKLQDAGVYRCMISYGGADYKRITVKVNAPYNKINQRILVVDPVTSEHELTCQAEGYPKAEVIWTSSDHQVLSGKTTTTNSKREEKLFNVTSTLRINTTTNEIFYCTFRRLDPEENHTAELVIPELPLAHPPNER

Compound	IC50 [µM]
COc1cc(/C=C/c2cncc(-c3ccc4c(c3)OCCO4)c2C)cc(OC)c1CN[C@@H](CO)C(=O)O [Compound 64, (S,E)-2-(4-(2-(5-(2,3-Dihydrobenzo[b][1,4]dioxin-6-yl)-4-methylpyridin-3-yl)vinyl)-2,6-dimethoxybenzylamino)-3-hydroxypropanoic Acid]	4.2
COc1cc(/C=C/c2cccc(-c3ccccc3)c2C)cc(OC)c1CNc1cccc(O)c1C(=O)O [Compound 53, (E)-2-(2,6-Dimethoxy-4-(2-(2-methylbiphenyl-3-yl)vinyl)benzylamino)-6-hydroxybenzoic Acid]	> 10
Cc1ccc(CN[C@H](CO)C(=O)O)cc1/C=C/c1cccc(-c2ccccc2)c1C [Compound 36, (R,E)-2-(4-Methyl-3-(2-(2-methylbiphenyl-3-yl)vinyl)benzylamino)-3-hydroxypropionic Acid]	0.1
Cc1c(C#Cc2ccc(CN3CCCC(O)C3C(=O)O)cc2F)cccc1-c1ccccc1 (centres unmarked) [Compound 29, 1-(3-Fluoro-4-((2-methylbiphenyl-3-yl)ethynyl)benzyl)-3-hydroxypiperidin-2-carboxylic Acid]	2.82
COC(=O)C1C(O)CCCN1Cc1ccc(/C=C/c2cccc(-c3ccccc3)c2C)c(Cl)c1 (centres unmarked) [Compound 20, (E)-Methyl 1-(3-chloro-4-(2-(2-methylbiphenyl-3-yl)vinyl)benzyl)-3-hydroxypiperidin-2-carboxylate]	> 10
COc1nc(/C=C/c2cccc(-c3ccccc3)c2C)ccc1CNCCNC(C)=O [Compound 39, (E)-N-(2-(((2-methoxy-6-(2-(2-methylbiphenyl)vinyl)pyridin-3-yl)methyl)amino)ethyl)acetamide]	0.17
Cc1cc(CN2CCCC(O)C2CO)ccc1/C=C/c1cccc(-c2ccccc2)c1C (centres unmarked) [Compound 22, (E)-2-Hydroxymethyl-1-(3-methyl-4-(2-(2-methylbiphenyl-3-yl)vinyl)benzyl)piperidin-3-ol]	0.55
COc1cc(/C=C/c2cccc(-c3ccccc3)c2C)cc(OC)c1CNc1ccc(C(=O)O)c(O)c1 [Compound 58, (E)-4-(2,6-Dimethoxy-4-(2-(2-methylbiphenyl-3-yl)vinyl)benzylamino)-2-hydroxybenzoic Acid]	> 10
COc1cc(C#Cc2cccc(-c3ccccc3)c2C)cc(OC)c1CN1CCC[C@H]1CO [Compound 2, (S)-(1-(2,6-Dimethoxy-4-((2-methyl-biphenyl-3-yl)ethynyl)benzyl)pyrrolidin-2-yl)methanol]	1.34
COc1ccc(-c2cccc(/C=C/c3cc(OC)c(CNC(C)(CO)C(=O)O)c(OC)c3)c2C)cc1 (centres unmarked) [Compound 50, (E)-2-(2,6-Dimethoxy-4-(2-(4′-methoxy-2-methylbiphenyl-3-yl)vinyl)benzylamino)-3-hydroxy-2-methylpropionic Acid]	7.98
COC(=O)c1cccc(-c2cccc(/C=C/c3cc(OC)c(CNC(C)(CO)C(=O)O)c(OC)c3)c2C)c1 (centres unmarked) [Compound 51, (E)-2-(2,6-Dimethoxy-4-(2-(3′-methoxycarbonyl-2-methylbiphenyl-3-yl)vinyl)benzylamino)-3-hydroxy-2-methylpropionic Acid]	0.815
COc1nc(/C=C/c2cccc(-c3ccccc3)c2C)ccc1CNC(CO)CO [Compound 40]	0.09
COc1cc(/C=C/c2cccc(-c3ccc4c(c3)OCCO4)c2C)cc(OC)c1CN1CCC[C@H]1CO [Compound 15]	0.24
COc1cc(/C=C/c2cccc(-c3ccccc3)c2C)cc(OC)c1CN1CCC[C@H]1CO [Compound 3, (S,E)-(1-(2,6-Dimethoxy-4-((2-methylbiphenyl-3-yl)vinyl)benzyl)pyrrolidin-2-yl)methanol]	2.7
Cc1c(/C=C/c2ccc(CN3CCC[C@H]3CO)cn2)cccc1-c1ccccc1 [Compound 16, (S,E)-(1-((6-(2-(2-Methylbiphenyl-3-yl)vinyl)pyridin-3-yl)methyl)pyrrolidin-2-yl)methanol]	0.59
COc1cc(/C=C/c2cccc(-c3ccc4c(c3)OCCO4)c2C)cc(OC)c1CNC(CO)C(=O)O (centres unmarked) [Compound 56, (E)-2-(4-(3-(2,3-Dihydrobenzo[b][1,4]dioxin-6-yl)-2-methylstyryl)-2,6-dimethoxybenzylamino)-3-hydroxypropanoic Acid]	0.1
COc1cc(/C=C/c2cccc(-c3cccc(CO)c3)c2C)cc(OC)c1CNC(C)(CO)C(=O)O (centres unmarked) [Compound 52, (E)-2-(2,6-Dimethoxy-4-(2-(3′-hydroxymethyl-2-methylbiphenyl-3-yl)vinyl)benzylamino)-3-hydroxy-2-methylpropionic Acid]	> 10
Cc1c(/C=C/c2cc(CN3CCC[C@H]3CO)ccc2C(F)(F)F)cccc1-c1ccc2c(c1)OCCO2 [Compound 67, (S,E)-(1-(3-(3-(2,3-Dihydrobenzo[b][1,4]dioxin-6-yl)-2-methylstyryl)-4-(trifluoromethyl)benzyl)pyrrolidin-2-yl)methanol]	2.4

Compound	IC50 [µM]
Cc1c(/C=C/c2ccc(CN3CCC[C@H]3CO)cc2Cl)cccc1-c1ccccc1 [Compound 11, (S,E)-(1-(3-Chloro-4-(2-(2-methylbiphenyl-3-yl)vinyl)benzyl)pyrrolidin-2-yl)methanol]	0.46
COc1cc(/C=C/c2cccc(-c3cnn(C)c3)c2C)cc(OC)c1CN[C@@H](CO)C(=O)O [Compound 61]	> 10
Cc1c(/C=C/c2ccc(CN3CCCC(O)C3C(N)=O)cc2F)cccc1-c1ccccc1 (centres unmarked) [Compound 24, (E)-1-(3-Fluoro-4-(2-(2-methylbiphenyl-3-yl)vinyl)benzyl)-3-hydroxypiperidin-2-carboxamide]	> 10
COc1cc(/C=C/c2cncc(-c3ccc4c(c3)OCCO4)c2C)cc(OC)c1CNC(C)(CO)C(=O)O (centres unmarked) [Compound 66, (E)-2-(4-(2-(5-(2,3-Dihydrobenzo[b][1,4]dioxin-6-yl)-4-methylpyridin-3-yl)vinyl)-2,6-dimethoxybenzylamino)-3-hydroxy-2-methylpropanoic Acid]	2.9
Cc1cc(CN2CCCC(O)C2C(=O)O)ccc1C#Cc1cccc(-c2ccccc2)c1C (centres unmarked) [Compound 28, 1-(3-Methyl-4-((2-methylbiphenyl-3-yl)ethynyl)benzyl)-3-hydroxypiperidin-2-carboxylic Acid]	2.16
(S,E)-2-(3-Chloro-4-(2-(2-methylbiphenyl-3-yl)vinyl)benzylamino)-3-hydroxypropanamide [Compound 33]	0.48
Cc1cc(CN2CCC[C@@H](O)[C@@H]2C(N)=O)ccc1/C=C/c1cccc(-c2ccccc2)c1C [Compound 27, (2R,3R,E)-3-Hydroxy-1-(3-methyl-4-(2-(2-methylbiphenyl-3-yl)vinyl)benzyl)piperidin-2-carboxamide]	0.92
COC(=O)C1C(O)CCCN1Cc1c(OC)cc(/C=C/c2cccc(-c3ccccc3)c2C)cc1OC (centres unmarked) [Compound 25, (E)-Methyl 1-(2,6-dimethoxy-4-(2-(2-methylbiphenyl-3-yl)vinyl)benzyl)-3-hydroxypiperidin-2-carboxylate]	5.95
COc1cc(/C=C/c2cccc(-c3ccc(C(N)=O)cc3)c2C)cc(OC)c1CNc1cccc(O)c1C(=O)O [Compound 55, (E)-2-(2,6-Dimethoxy-4-(2-(4′-carbamoyl-2-methylbiphenyl-3-yl)vinyl)benzylamino)-6-hydroxy-benzoic Acid]	4.5
Cc1cc(/C=C/c2cccc(-c3ccc4c(c3)OCCO4)c2C)cc(OCc2cccc(C#N)c2)c1CN1CCC[C@H]1CO [Compound 1, (S,E)-3-((5-(3-(2,3-Dihydrobenzo[b][1,4]dioxin-6-yl)-2-methylstyryl)-2-((2-(hydroxymethyl)pyrrolidin-1-yl)methyl)-3-methylphenoxy)methyl)benzonitrile]	1.53
COc1cc(/C=C/c2cccc(-c3ccccc3)c2C)cc(OC)c1CNCCNC(C)=O [Compound 6, (E)-N-(2-((2,6-Dimethoxy-4-(2-(2-methylbiphenyl-3-yl)vinyl)benzyl)amino)ethyl)acetamide]	0.15
(R,E)-2-(3-Chloro-4-(2-(2-methylbiphenyl-3-yl)vinyl)benzylamino)-3-hydroxypropionamide [Compound 34]	0.34
COc1cc(/C=C/c2cccc(-c3ccccc3)c2C)cc(OC)c1CNC(CO)CO [Compound 5, (E)-2-((2,6-Dimethoxy-4-(2-(2-methylbiphenyl-3-yl)vinyl)benzyl)amino)propane-1,3-diol]	0.06
COc1ccc(-c2cccc(/C=C/c3cc(OC)c(CN[C@@H](CO)C(=O)O)c(OC)c3)c2C)cc1 [Compound 48, (S,E)-2-(2,6-Dimethoxy-4-(2-(4′-methoxy-2-methylbiphenyl-3-yl)vinyl)benzylamino)-3-hydroxypropionic Acid]	> 10
COc1ccc(-c2cccc(/C=C/c3cc(OC)c(CNc4cccc(O)c4C(=O)O)c(OC)c3)c2C)cc1 [Compound 54, (E)-2-(2,6-Dimethoxy-4-(2-(4′-methoxy-2-methylbiphenyl-3-yl)vinyl)benzylamino)-6-hydroxybenzoic Acid]	> 10
COc1nc(/C=C/c2cccc(-c3ccccc3)c2C)ccc1CN[C@H](CO)C(=O)O [Compound 41, (R,E)-3-Hydroxy-2-((2-methoxy-6-(2-(2-methylbiphenyl-3-yl)vinyl)pyridin-3-yl)methylamino)propanoic Acid]	5.09
COc1cc(/C=C/c2cccc(-c3ccccc3)c2C)cc(OC)c1CN[C@](C)(CO)C(=O)O [Compound 46, (R,E)-2-(2,6-Dimethoxy-4-(2-(2-methylbiphenyl-3-yl)vinyl)benzylamino)-3-hydroxy-2-methylpropanoic Acid]	0.048
